Experimental data reported in US20110319329A1, “USE OF SO[…] IN CLUSTER HEADACHE” (priority 2007, published 2011).
Read-outs that look alike come from different tables or passages of the source. Numbered stars: 1 amine (or outer) side, 2 acyl side, 3 side chain; on linkers, the order of the positions; unused ones are H or OH. Square brackets hold non-standard residues; d marks the D form. Side chains are listed from the residue outwards. Peptide text beside a SMILES is read from it. * marks the point of attachment. Ethylenediamine = C(CN[*:2])N[*:1]; Hyp = O=C(O)[C@@H]1C[C@@H](O)CN1; Phg = N[C@H](C(=O)O)c1ccccc1; CO = O=C([*:1])[*:2]; Bn = c1ccc(C*)cc1

Tests used:
[1] = cited from earlier work
[2] = partition coefficient (lipophilicity)

| Compound | half-life ([1]; octapeptide analog, can be given subcutaneously) | logP [2] | half-life ([1]; native somatostatin, necessitates intravenous infusion) |
| --- | --- | --- | --- |
| C[C@@H](O)[C@@H]1NC(=O)[C@H](CCCCN)NC(=O)[C@@H](Cc2c[nH]c3ccccc23)NC(=O)[C@H](Cc2ccccc2)NC(=O)[C@@H](NC(=O)[C@H](N)Cc2ccccc2)CSSC[C@@H](C(=O)N[C@H](CO)[C@@H](C)O)NC1=O [octreotide] | approximately 1.5 hours | 5.5 | – |
| NCCCC[C@@H]1NC(=O)[C@@H](Cc2c[nH]c3ccccc23)NC(=O)[C@H](c2ccccc2)NC(=O)[C@@H]2C[C@@H](OC(=O)NCCN)CN2C(=O)[C@H](Cc2ccccc2)NC(=O)[C@H](Cc2ccc(OCc3ccccc3)cc2)NC1=O [pasireotide, cyclo[{4-(NH2—C2H4—NH—CO—O-)Pro}-Phg-DTrp-Lys-Tyr(4-Bzl)-Phe]] (cyclo([Hyp]([CO-Ethylenediamine])[Phg][dW]KY(Bn)F); ring closure inferred) | – | 2.7 | – |
| somatostatin | – | – | several minutes |
